# Measured values reported in patent US20230040770A1, “HETEROCYCLIC COMPOUND AND USE THEREOF” (TAKEDA PHARMACEUTICAL COMPANY LIMITED, priority 2019, published 2023).
# Molecular target: T1, human orexin type 2 receptor (Homo sapiens, UniProt O43614)
# T1 construct: expressed in transfected cells
# T1 sequence (O43614 1-444): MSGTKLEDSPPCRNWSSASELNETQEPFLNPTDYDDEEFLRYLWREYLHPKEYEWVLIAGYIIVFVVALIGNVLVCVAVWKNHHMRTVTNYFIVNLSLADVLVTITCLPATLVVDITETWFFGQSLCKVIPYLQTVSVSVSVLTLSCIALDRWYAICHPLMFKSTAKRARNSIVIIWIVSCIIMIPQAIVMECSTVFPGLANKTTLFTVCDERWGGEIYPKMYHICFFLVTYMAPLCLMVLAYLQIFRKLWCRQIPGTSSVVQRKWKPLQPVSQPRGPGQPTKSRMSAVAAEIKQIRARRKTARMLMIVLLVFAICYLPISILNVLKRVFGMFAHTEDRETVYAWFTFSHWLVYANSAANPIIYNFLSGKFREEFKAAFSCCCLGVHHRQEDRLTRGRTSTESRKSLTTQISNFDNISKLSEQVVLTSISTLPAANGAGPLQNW
# Test: Measurement of orexin type 2 receptor agonist activity (calcium indicator fluorescence, CHO cells forcibly expressing human OX2 receptor)
# Assay type: cell-based
# Settings: compound at 3 μM; 0% = DMSO, 100% = orexin A (human) 10 nM
# In short: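 Agonist response normalised between vehicle (0%) and orexin A at 10 nM final (100%), from kinetic Fluo-4 calcium signals recorded for about 2 min after compound addition. Cells: stable human OX2R CHO clone, dye-loaded 30 min at 37 °C plus 30 min at room temperature.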
row,SMILES,"OX2R agonist activity (3 μM, %)"
1,"CCS(=O)(=O)N[C@@H]1[C@H](Cc2cccc(-c3cc(F)ccc3F)c2F)N(C(=O)[C@H]2CCCO2)CC1(F)F [Example 456, N-{(2S,3R)-4,4-difluoro-1-[(2R)-oxolane-2-carbonyl]-2-[(2,2′,5′-trifluoro[1,1′-biphenyl]-3-yl)methyl]pyrrolidin-3-yl}ethanesulfonamide]",77%
2,"CCS(=O)(=O)N[C@H]1[C@@H](F)CN(C(=O)C2CCO2)[C@H]1Cc1cccc(-c2cccc(C)c2)c1F (stereo partly drawn) [Example 498, N-[(2S,3R,4S)-4-fluoro-2-[(2-fluoro-3′-methyl[1,1′-biphenyl]-3-yl)methyl]-1-(oxetane-2-carbonyl)pyrrolidin-3-yl]ethanesulfonamide]",99%
3,"CCS(=O)(=O)N[C@@H]1[C@H](Cc2cccc(-c3cccc(C)c3F)c2F)N(C(=O)C(C)(C)O)CC1(F)F [Example 65, N-[(2S,3R)-2-[(2,2′-difluoro-3′-methyl[1,1′-biphenyl]-3-yl)methyl]-4,4-difluoro-1-(2-hydroxy-2-methylpropanoyl)pyrrolidin-3-yl]ethanesulfonamide]",100%
4,"CCS(=O)(=O)N[C@@H]1[C@H](Cc2cccc(-c3ccccc3)c2)N(C(=O)C2CCO2)CC1(F)F (stereo partly drawn) [Example 50, N-[(2S,3R)-2-[([1,1′-biphenyl]-3-yl)methyl]-4,4-difluoro-1-(oxetane-2-carbonyl)pyrrolidin-3-yl]ethanesulfonamide]",99%
5,"CS(=O)(=O)N[C@@H]1[C@H](Cc2cccc(-c3ccccc3)c2F)N(C(=O)C23CC(C2)C3)CC1(F)F [Example 78, N-{(2S,3R)-1-(bicyclo[1.1.1]pentane-1-carbonyl)-4,4-difluoro-2-[(2-fluoro[1,1′-biphenyl]-3-yl)methyl]pyrrolidin-3-yl}methanesulfonamide]",93%
6,"CCS(=O)(=O)N[C@@H]1[C@H](Cc2cccc(-c3cccc(C(F)F)c3)c2F)N(C(=O)C2CCO2)CC1(F)F (stereo partly drawn) [Example 503, N-[(2S,3R)-2-{[3′-(difluoromethyl)-2-fluoro[1,1′-biphenyl]-3-yl]methyl}-4,4-difluoro-1-(oxetane-2-carbonyl)pyrrolidin-3-yl]ethanesulfonamide]",89%
7,"CS(=O)(=O)N[C@H]1[C@@H](F)CN(C(=O)C2CCO2)[C@H]1Cc1cccc(-c2cccc(Cl)c2)c1F (stereo partly drawn) [Example 328, N-[(2S,3R,4S)-2-[(3′-chloro-2-fluoro[1,1′-biphenyl]-3-yl)methyl]-4-fluoro-1-(oxetane-2-carbonyl)pyrrolidin-3-yl]methanesulfonamide]",86%
8,"Cc1ccc(F)c(-c2cccc(C[C@H]3[C@@H](NS(=O)(=O)C4CC4)[C@@H](F)CN3C(=O)C3CCO3)c2F)c1 (stereo partly drawn) [Example 488, N-[(2S,3R,4S)-2-[(2,2′-difluoro-5′-methyl[1,1′-biphenyl]-3-yl)methyl]-4-fluoro-1-(oxetane-2-carobnyl)pyrrolidin-3-yl]cycloproapnesulfonamide]",95%
9,"CC(C)(O)C(=O)N1C[C@H](F)[C@H](NS(=O)(=O)C2CC2)[C@@H]1Cc1cccc(-c2cccc(F)c2)c1F [Example 369, N-[(2S,3R,4S)-2-[(2,3′-difluoro[1,1′-biphenyl]-3-yl)methyl]-4-fluoro-1-(2-hydroxy-2-methylpropanoyl)pyrrolidin-3-yl]cyclopropanesulfonamide]",85%
10,"CS(=O)(=O)N[C@@H]1[C@H](Cc2cccc(-c3cc(F)cc(F)c3)c2F)N(C(=O)[C@H]2C[C@H](F)C2)CC1(F)F [Example 431, N-{(2S,3R)-4,4-difluoro-1-((1r,3S)-3-fluorocyclobutane-1-carbonyl)-2-[(2,3′,5′-trifluoro[1,1′-biphenyl]-3-yl)methyl]pyrrolidin-3-yl}methanesulfonamide]",106%
11,"CCS(=O)(=O)N[C@@H]1[C@H](Cc2cccc(-c3cccc(F)c3)c2)N(C(=O)C(C)C)CC1(F)F [Example 97, N-[(2S,3R)-4,4-difluoro-2-[(3′-fluoro[1,1′-biphenyl]-3-yl)methyl]-1-(2-methylpropanoyl)pyrrolidin-3-yl]ethanesulfonamide]",90%
12,"CS(=O)(=O)N[C@@H]1[C@H](Cc2cccc(-c3cccc(F)c3)c2)N(C(=O)C23CC(C2)C3)CC1(F)F [Example 21, N-{(2S,3R)-1-(bicyclo[1.1.1]pentane-1-carbonyl)-4,4-difluoro-2-[(3′-fluoro[1,1′-biphenyl]-3-yl)methyl]pyrrolidin-3-yl}methanesulfonamide]",102%
13,"CCS(=O)(=O)N[C@H]1[C@@H](F)CN(C(=O)N(C)C)[C@H]1Cc1cccc(-c2cc(F)cc(F)c2)c1F [Example 329, (2S,3R,4S)-3-[(ethanesulfonyl)amino]-4-fluoro-N,N-dimethyl-2-[(2,3′,5′-trifluoro[1,1′-biphenyl]-3-yl)methyl]pyrrolidine-1-carboxamide]",88%
14,"CCS(=O)(=O)N[C@H]1[C@@H](F)CN(C(=O)C2(O)CCC2)[C@H]1Cc1cccc(-c2cccc(C)c2)c1F [Example 536, N-[(2S,3R,4S)-4-fluoro-2-[(2-fluoro-3′-methyl[1,1′-biphenyl]-3-yl)methyl]-1-(1-hydroxycyclobutane-1-carbonyl)pyrrolidin-3-yl]ethanesulfonamide]",98%
15,"CCS(=O)(=O)N[C@@H]1[C@H](Cc2cccc(-c3cccc(OC(F)F)c3)c2F)N(C(=O)C(C)C)CC1(F)F [Example 549, N-[(2S,3R)-2-{[3′-(difluoromethoxy)-2-fluoro[1,1′-biphenyl]-3-yl]methyl}-4,4-difluoro-1-(2-methylpropanoyl)pyrrolidin-3-yl]ethanesulfonamide]",94%
16,"CC(C)(O)C(=O)N1CC(F)(F)[C@H](NS(C)(=O)=O)[C@@H]1Cc1cccc(-c2ccccc2)c1F [Example 4, N-[(2S,3R)-4,4-difluoro-2-[(2-fluoro[1,1′-biphenyl]-3-yl)methyl]-1-(2-hydroxy-2-methylpropanoyl)pyrrolidin-3-yl]methanesulfonamide]",101%
17,"CCS(=O)(=O)N[C@@H]1[C@H](Cc2cccc(-c3cccc(OC)c3)c2F)N(C(=O)C(C)C)CC1(F)F [Example 511, N-[(2S,3R)-4,4-difluoro-2-[(2-fluoro-3′-methoxy[1,1′-biphenyl]-3-yl)methyl]-1-(2-methylpropanoyl)pyrrolidin-3-yl]ethanesulfonamide]",98%
18,"Cc1cccc(-c2cccc(C[C@H]3[C@@H](NS(=O)(=O)C4CC4)[C@@H](F)CN3C(=O)N3CCC3)c2F)c1 [Example 543, N-{(2S,3R,4S)-1-(azetidine-1-carbonyl)-4-fluoro-2-[(2-fluoro-3′-methyl[1,1′-biphenyl]-3-yl)methyl]pyrrolidin-3-yl}cyclopropanesulfonamide]",99%
19,"CCS(=O)(=O)N[C@@H]1[C@H](Cc2cccc(-c3cccc(C(F)F)c3)c2F)N(C(=O)[C@H]2CCCO2)CC1(F)F [Example 457, N-{(2S,3R)-2-{[3′-(difluoromethyl)-2-fluoro[1,1′-biphenyl]-3-yl]methyl}-4,4-difluoro-1-[(2R)-oxolane-2-carbonyl]pyrrolidin-3-yl}ethanesulfonamide]",80%
